The values that follow come from patent US5817012A, “Method of determining an analyte” (Sudormed, Inc., priority 1997, dated 1998).

“And” between values parts separate entries of the source, which are not always exact repeats. Equal values may be shown once. “Also recorded” adds a separate entry of the source. Where a name gives a salt, the structure may show the parent alone.

As a reminder, the pKa is the negative logarithm of the acid dissociation constant.

A short description of series [1]: Example 6: cocaine collected on patch converted to BE and analyzed with Roche RIA. The note with it: seven days wear, subject who ingested cocaine, pH 11, 20 minutes.
Source text: Absorption disks, 3/8 inch in diameter, are cut from Gelman membranes (Gelman 0.45μ (SU-450) Ultrabind Supported Membranes). These 3/8 inch disks are mounted at the center of a 1/4 inch diameter hole cut in the center of a one inch diameter circle of Tegaderm 1625 Transparent Dressing (available from Minnesota Mining and Manufacturing, St. Paul, Minn.) to form a patch.
The patches remain in place until they are removed seven days later from each subject.
Following elution, the analyte solutions derived from each of the patches are brought to a pH of 11 by the addition of NaOH to each of the solutions. The solutions are reacted for 20 minutes at pH 11 and at room temperature, after which the solutions are neutralized with HCl.
For series [2] the following is noted: literature (Schwartz; Martindale); cited from earlier work.
For series [3] the following is noted: Table 2; weak bases (Wilson, J., Abused Drugs, 1990); cited from earlier work.
The format of series [4] is in vivo, human. To be noted: 60 mg codeine phosphate P.O.; first six hours; heating pad. The protocol:
FIG. 16 is a graph depicting the results of an experiment in which a subject was administered codeine and a dermal patch was then placed on each of the subject's thighs. A heating pad which was heated to 105° F. was then placed over one thigh while the other thigh remained unheated. The patches were replaced each hour for six hours, and a final pair of patches was placed on the subject's thighs for one hour between 24 and 25 hours after the administration of the codeine.
Active perspiration can be caused by an increase in the body's temperature,such as during exercise. A further experiment was therefore conducted to see whether an increase in the temperature of only one area of the body could cause localized active perspiration. In this experiment, a subject was administered 60 mg of codeine phosphate (in the form of Naldecon CX P.O., 30 ml), and a dermal patch was then placed on each of the subject's thighs. A heating pad which was heated to 105° F. was then placed over one thigh while the other thigh remained unheated. The patches were replaced each hour for six hours, and a final pair of patches was placed on the subject's thighs for one hour between 24 and 25 hours after the administration of the codeine.

Series [5] is described as follows: Example 20: codeine level in urine, Tegaderm-only patches and patches with absorbent material (Table 3). In kind it is in vivo, human. From the text: Five patches comprising only Tegaderm™ 1625 wound dressing were applied to a subject. […] Six patches comprising Tegaderm™ 1625 and another absorbent material were also applied to the subject at the same time. The collection surface area of the absorbent material in these patches was 14 cm^2. Prior to applying each of the patches, the area of skin under each patch was first swabbed with alcohol in order to remove any contaminants present on the surface of the skin.
Twenty-four hours after the initial application of the patches to the subject, a pre-dose urine specimen and one of each of the two patch types were collected. The subject then orally consumed 60 mg of codeine phosphate (30 ml. Naldecon CX-60). This represents a typical codeine dose. At 30 and 48 hours post-dose, urine and one of each type of patch were collected.

Series [6] is classed as in vivo, human. The note with it: seven days wear, subject who smoked a marijuana cigarette. The protocol:
THC polyclonal antibody from sheep (available from Biogenesis, Bournmouth, England) is diluted 1:100 in PBS (pH 7.5). The antibodies are bound to Gelman 0.45μ (SU-450) Ultrabind Supported Membrane, following the protocol in Gelman Original Equipment Manufacturer application P.N. 31,084. The membranes are air dried. Disks, 3/8 inch in diameter, are cut from the coated Gelman membranes.
Each of the removed membranes is flushed five times with 300 μl of 0.2% Tween 20 in PBS. The membranes are incubated for 30 minutes in 100 μl of E-Z Screen Cannabinoid enzyme conjugate from the E-Z Screen Test Kit (available from Environmental Diagnostics, Inc., Burlington, N.C.).
After incubation, each membrane is flushed three times with 300 μl of 0.2% Tween 20 in PBS, followed by three flushes with PBS alone. The membranes are then incubated in TMB Membrane Peroxide Substrate (available from Kirkegaard & Perry Labs, Gaithersburg, Md.) for 10 minutes. A light blue background appears in all six membranes. […] No white dots appear on the three membranes taken from the subject who has never used marijuana.

For series [7] the following is noted: cited from earlier work.
Series [8] is described as follows: FIG. 13: cocaine in dermal patches after intravenous cocaine HCl. The note with it: 32 mg cocaine HCl intravenously.
Procedure: A dermal patch was then immediately placed on the subject's skin, and after 30 minutes this patch was removed and replaced by a new patch.
Series [9] can be described thus: FIG. 14: cocaine in dermal patches after smoked cocaine. The note with it: 42 mg smoked.
The conditions of series [10]: in vivo; cited from earlier work.
Series [11] is described as follows: Example 12: amount of cocaine recovered on patch after nasal ingestion. The note with it: 126 mg nasally ingested; about 200 hours wear; 10 cm^2 disk.

On to `CN1[C@H]2CC[C@@H]1[C@@H](C(=O)O)[C@@H](OC(=O)c1ccccc1)C2` [BE, benzoylecgonine], for which, where the note is “in vivo”, the “concentration of BE in the subject's urine over time” value was “declining”. Besides, the “diagnostic analysis for BE in patch extract” value in series [1] is recorded as “tests positive”.

`CCN(CC)C(=O)[C@@H]1C=C2c3cccc4[nH]cc(c34)C[C@H]2N(C)C1` [LSD]: in series [2], the protection from light entry is given as “must be kept from exposure to strong light”.

Regarding `CC(N)Cc1ccccc1` (stereo not drawn) [Amphetamine], the pKa in [3] is 9.8.

Consider `CN[C@@H](C)Cc1ccccc1` [Methamphetamine], for which the pKa in series [3] is given as 9.9.

`c1ccc(C2(N3CCCCC3)CCCCC2)cc1` [Phencyclidine]: the pKa in series [3] is listed as 8.5.

Regarding `COC(=O)[C@H]1[C@@H](OC(=O)c2ccccc2)C[C@@H]2CC[C@H]1N2C` [cocaine hydrochloride], in [2], the protection from light entry is recorded as “require protection from light”.

As to `COc1ccc2c3c1O[C@H]1[C@@H](O)C=C[C@H]4[C@@H](C2)N(C)CC[C@@]341` [Codeine, codeine], the “analyte in patches, heated versus unheated thigh” value in [4] is “contained more analyte than the patches on the unheated thigh”. In addition, the “ratio of recovered codeine in the Tegaderm-only patches compared to the patches with an absorbent material” value in [5] (24.4/18.1) was determined as 136%. In addition, the “mean codeine level, all five patches having another absorbent material” value in series [5] (30 and 48 hours post-dose) was 18.1 ng/mL. In addition, the “mean codeine level, all four Tegaderm-only patches” value in series [5] (30 and 48 hours post-dose) was 24.4 ng/mL. Further, the “Codeine Level, patch with absorbent material” value is 12.40 ng/mL and 23.99 ng/mL in series [5] (30 hours post-dose, 60 mg codeine phosphate orally, 14 cm^2); 14.39 ng/mL and 19.41 ng/mL and 20.17 ng/mL in series [5] (48 hours post-dose, 60 mg codeine phosphate orally, 14 cm^2); 0 ng/mL in series [5] (predose). Also, in series [5] (48 hours post-dose), the “urine codeine level” value was “returned to baseline”. Besides, the “Codeine Level, urine sample” value in series [5] (48 hours post-dose, 60 mg codeine phosphate orally) worked out at 0 ng/mL; in [5] (predose) it was 0 ng/mL. Also, the “Codeine Level, Tegaderm-only patch” value is 17.69 ng/mL and 23.19 ng/mL in series [5] (48 hours post-dose, 60 mg codeine phosphate orally, 42 cm^2); 0 ng/mL in series [5] (predose). Moreover, the concentration at 30 h in [5] (human, urine, po, 30 hours post-dose, 60 mg codeine phosphate orally, read-out: Codeine Level, urine sample) worked out at 620 ng/mL. Further, in [5] (in vivo), the “retention of codeine by both patch designs” value is “about 48 hours”. Besides, the “pre-dose presence of codeine” value in series [5] (pre-dose urine and patch specimens) is “no codeine was present”.

Regarding `CCCCCc1cc(O)c2c(c1)OC(C)(C)[C@@H]1CCC(C)=C[C@@H]21` [THC, tetrahydrocannabinol], the “appearance of white dots on membranes (THC derivatives in sweat)” value in series [6] was “White dots appear over the background on the three membranes”.

With `COC(=O)[C@H]1[C@@H](OC(=O)c2ccccc2)C[C@@H]2CC[C@H]1N2C` [Cocaine], the back-diffusion from patch entry (almost 200 hours) is “without exhibiting significant back-diffusion; also recorded: significant back-diffusion was prevented”. Further, the “concentration of cocaine on the dermal patch over time” value (almost 200 hours after ingestion, no specific binding chemistry) was “rose immediately during the first hours of the test, and thereafter stayed at approximately the same level for the remaining 200 hours”. Also, the “stability at pH values higher than 7” value in series [7] is “unstable”. Further, in series [8], the “concentration of cocaine in perspiration after the fourth hour” value is “a steady decline”. The “cocaine concentration in patch, 8 to 24 hours” value in series [9] (patch wet with perspiration, worn 8 to 24 hours) was “a significant rise in concentration”. The “cocaine concentration in patch, 4 to 8 hours” value in series [9] (patch worn between 4 and 8 hours) was “a decline”. The “analyte in patch worn 8 to 24 hours compared to patch worn 2 to 4 hours” value in series [9] (subject actively perspired) was “significantly more analyte diffused into the patch worn between 8 and 24 hours”. In addition, in series [10], the “presence in perspiration and urine” value is “present in perspiration but not in urine”. Further, in series [11], the “cocaine recovered on the patch” value was “approximately 500 ng” and the “cocaine recovered on the patch (in parentheses)” value is listed as ~0.5 mg.
